Measurements published in US5466712A, “Substituted n-aryl-1,2-diaminocyclobutene-3,4-diones” (American Home Products Corporation, priority 1994, dated 1995).

Test system: Isolated Rat Bladder Strips
Assay: Inhibition of Contractions in Isolated Rat Bladder Strips (15 mM KCl-enhanced contractions)
Format: cell-based, Sprague-Dawley rats
Settings: 0.5 h, 30 min challenge; for IC50: concentration eliciting 50% inhibition of pre-drug contractile activity; for inhibition at 30 µM: read-out: Inhibition of Force (%) at (x) μM
Description: Smooth muscle relaxing activity of the compounds of this invention was established in accordance with standard pharmaceutically accepted test procedures in representative compounds as follows:
Sprague-Dawley rats (150-200 g) are rendered unconscious by CO2 asphyxiation and then euthanized by cervical dislocation. The bladder is removed into warm (37 deg. C.) physiological salt solution (PSS) of the following composition (mM): NaCl, 118.4; KCl, 4.7; […]; NaHCO3, 24.9; KH2 PO4, 1.2; glucose, 11.1; EDTA, 0.023; gassed with […]; pH 7.4. The bladder is opened and then cut into strips 1-2 mm in width and 7-10 mm in length. The strips are subsequently suspended in a 10 mL tissue bath under an initial resting tension of 1.5 g. The strips are held in place by two surgical clips one of which is attached to fixed hook while the other is attached to an isometric force transducer. […] The carbachol is then washed out and the tissue allowed to relax to its resting level of activity. Following 1 further 30 min period of recovery an additional 15 mM KCl are introduced into the tissue bath. This increase in KCl concentration results in a large increase in the amplitude of spontaneous contractions (and initiation of contractions in previously quiescent strips) superimposed upon a small increase in basal tone. Following stabilization of this enhanced level of contractile activity, incremental increases in the concentration of test compound or vehicle are introduced into the tissue bath. Contractile activity is measured for each compound or vehicle concentration during the last […] of a 30 min challenge.
Isometric force developed by the bladder strips is measured using a […] to elicit 50% inhibition of pre-drug contractile activity (IC50 concentration) is calculated from this concentration-response curve. The maximum percentage inhibition of contractile activity evoked by a test compound is also recorded for concentrations of test compound<or equal to 30 μM.

Row | Structure (SMILES) | IC50 [nM] | inhibition at 30 µM [%]
1 | C[C@@H](Nc1c(Nc2ccc(C#N)cc2)c(=O)c1=O)c1ccccc1 [Example 1, 4-[3,4-Dioxo-2-((R)-1-phenyl-ethylamino)-cyclobut-1-enylamino]-benzonitrile] | 56 | 
2 | CC(C)(Nc1c(Nc2ccc(C#N)cc2)c(=O)c1=O)c1ccccc1 [Example 9, 4-[3,4-Dioxo-2-(1-methyl-1-phenyl-ethylamino)-cyclobut-1-enylamino]-benzonitrile] |  | 22
3 | C[C@H](Nc1c(Nc2ccc(C#N)cc2)c(=O)c1=O)c1ccccc1 [Example 5, 4-[3.4-Dioxo-2-((S)-1-phenyl-ethylamino)-cyclobut-1-enylamino]-benzonitrile] |  | 38
4 | C[C@@H](Nc1c(Nc2ccncc2)c(=O)c1=O)c1ccccc1 [Example 4, 3-((R)-1-Phenyl-ethylamino)-4-(pyridin-4-ylamino)-cyclobut-3-ene-1,2-dione] | 2300 | 
5 | CC[C@H](Nc1c(Nc2ccc(C#N)cc2)c(=O)c1=O)c1ccccc1 [Example 11, 4-[3,4-Dioxo-2-((S)-1-phenyl-propylamino)-cyclobut-1-enylamino]-benzonitrile] |  | 28
